Data taken from ChEMBL document CHEMBL1201862, “PubChem BioAssay data set” (2004).
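How tested: cells in 96-well plates exposed to compound for 48 hours at five concentrations. GI50 = concentration required for 50% inhibition of growth.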 Active and inactive are the calls of the source. Rule as the data show it: active = GI50 up to about 1.1 µM and inactive = higher.

Columns and labels:
Assay in all cases: inhibition of tumour cell growth, NCI panel, 48 h
NCI-H23 = system: NCI-H23
HCC 2998 = system: HCC 2998
SN12C = system: SN12C
EKVX = system: EKVX
SF-268 = system: SF-268
SNB-19 = system: SNB-19
KM12 = system: KM12
OVCAR-3 = system: OVCAR-3
HL-60 = system: HL-60
UACC-257 = system: UACC-257
UACC-62 = system: UACC-62
M14 = system: M14
SF-539 = system: SF-539
NCI-H522 = system: NCI-H522
TK-10 = system: TK-10
SR = system: SR
UO-31 = system: UO-31
SF-295 = system: SF-295
NCI/ADR-RES = system: NCI/ADR-RES
SK-MEL-5 = system: SK-MEL-5

Compound | GI50 (NCI-H23) | GI50 (HCC 2998) | GI50 (SN12C) | GI50 (EKVX) | GI50 (SF-268) | GI50 (SNB-19) | GI50 (KM12) | GI50 (OVCAR-3) | GI50 (HL-60) | GI50 (UACC-257) | GI50 (UACC-62) | GI50 (M14) | GI50 (SF-539) | GI50 (NCI-H522) | GI50 (TK-10) | GI50 (SR) | GI50 (UO-31) | GI50 (SF-295) | GI50 (NCI/ADR-RES) | GI50 (SK-MEL-5)
S=C(Nc1ccccc1)N1N=C2c3ccccc3CC[C@H]2[C@@H]1c1ccccc1 | 5.27 µM (inactive) | > 100 µM (inactive) | 37.2 µM (inactive) | > 100 µM (inactive) | 12.9 µM (inactive) | 9.18 µM (inactive) | 2.79 µM (inactive) | 1.88 µM (inactive) | 0.855 µM (active) | 3.58 µM (inactive) | 2.75 µM (inactive) | 4.89 µM (inactive) | 5.87 µM (inactive) | 0.581 µM (active) | > 100 µM (inactive) | 0.248 µM (active) | 13.2 µM (inactive) |  |  | 
O=C(Nc1sccc1S(=O)(=O)c1ccccc1)c1ccccc1 | > 100 µM (inactive) | > 100 µM (inactive) | > 100 µM (inactive) | > 100 µM (inactive) | > 100 µM (inactive) | > 100 µM (inactive) | > 100 µM (inactive) | 99.5 µM (inactive) |  | > 100 µM (inactive) | > 100 µM (inactive) | > 100 µM (inactive) | > 100 µM (inactive) | > 100 µM (inactive) | > 100 µM (inactive) |  | > 100 µM (inactive) | > 100 µM (inactive) | > 100 µM (inactive) | > 79.3 µM (inactive)
C/C=C/C1(C)/C(=N\O)C(C)(CCC)C(=O)N1O (stereo not drawn) | > 100 µM (inactive) | > 100 µM (inactive) | > 100 µM (inactive) | > 100 µM (inactive) |  | > 100 µM (inactive) | > 100 µM (inactive) | > 100 µM (inactive) | > 100 µM (inactive) | > 100 µM (inactive) | > 100 µM (inactive) | > 100 µM (inactive) | > 100 µM (inactive) | > 100 µM (inactive) | > 100 µM (inactive) | > 100 µM (inactive) | > 100 µM (inactive) | > 100 µM (inactive) |  | > 100 µM (inactive)
N#C/C(=C\c1ccccc1)C(NO)Nc1ccccc1 (stereo not drawn) | > 100 µM (inactive) | > 100 µM (inactive) | > 100 µM (inactive) | > 100 µM (inactive) | 65.3 µM (inactive) | 60.4 µM (inactive) | > 100 µM (inactive) | 48.2 µM (inactive) | > 100 µM (inactive) | > 100 µM (inactive) | 42.1 µM (inactive) | > 100 µM (inactive) | 70.3 µM (inactive) | 35.3 µM (inactive) | > 100 µM (inactive) | 20.1 µM (inactive) | 68.7 µM (inactive) | > 100 µM (inactive) |  | 53.6 µM (inactive)
Nc1nc(Cl)cc(NCCCCCCNc2cc(Cl)nc(N)n2)n1 | 54.5 µM (inactive) | > 100 µM (inactive) | > 100 µM (inactive) | > 100 µM (inactive) |  | > 100 µM (inactive) | > 100 µM (inactive) | 34 µM (inactive) | 15.2 µM (inactive) | 59.6 µM (inactive) | 12 µM (inactive) | > 100 µM (inactive) | > 100 µM (inactive) | 27.7 µM (inactive) | > 100 µM (inactive) | 42 µM (inactive) | > 100 µM (inactive) | 28.1 µM (inactive) |  | 13.1 µM (inactive)
O=c1nc2n(cc1/C=C\Br)C1CC(O)C(CO2)O1 (stereo not drawn) | > 100 µM (inactive) | > 100 µM (inactive) | > 100 µM (inactive) | > 100 µM (inactive) | > 100 µM (inactive) | > 100 µM (inactive) | > 100 µM (inactive) | > 100 µM (inactive) | 0.792 µM (active) | > 100 µM (inactive) | > 100 µM (inactive) |  | 38.4 µM (inactive) |  | > 100 µM (inactive) |  | > 100 µM (inactive) | > 100 µM (inactive) | > 100 µM (inactive) | > 100 µM (inactive)
CC1=CC(C2/C(=N/O)C=C(C)CC2(C)C)C(O)C(C)(C)C1 (stereo not drawn) | 16.2 µM (inactive) | 14.1 µM (inactive) | 18.4 µM (inactive) | 16.5 µM (inactive) | 18 µM (inactive) | 15.8 µM (inactive) | 15.9 µM (inactive) | 11.1 µM (inactive) | 16 µM (inactive) | 15.5 µM (inactive) | 15.2 µM (inactive) | 15.1 µM (inactive) | 24 µM (inactive) |  | 19.1 µM (inactive) |  | 15.6 µM (inactive) | 18.6 µM (inactive) | 16.3 µM (inactive) | 15.1 µM (inactive)
NC(=O)N/N=C1/CCCC/C1=C\c1ccccc1 | > 100 µM (inactive) | > 100 µM (inactive) | > 100 µM (inactive) | > 100 µM (inactive) | > 100 µM (inactive) |  | > 100 µM (inactive) | > 100 µM (inactive) | > 100 µM (inactive) | > 100 µM (inactive) | > 100 µM (inactive) | > 100 µM (inactive) | > 100 µM (inactive) | > 100 µM (inactive) | > 100 µM (inactive) | > 100 µM (inactive) | 80.9 µM (inactive) | > 100 µM (inactive) |  | > 100 µM (inactive)
Cc1cc(C)nc(NS(=O)(=O)c2ccc(Nc3c4ccccc4nc4c(C(=O)Nc5ccc(S(=O)(=O)N=C(N)N)cc5)ccc(Cl)c34)cc2)n1 | 19.7 µM (inactive) | 20 µM (inactive) | 29.8 µM (inactive) | 56.4 µM (inactive) | 27.9 µM (inactive) | 20.4 µM (inactive) | 42.7 µM (inactive) | 17.5 µM (inactive) | 24.1 µM (inactive) | 64.3 µM (inactive) | 19.3 µM (inactive) | 88.5 µM (inactive) | 19.3 µM (inactive) | 15.8 µM (inactive) | 34.6 µM (inactive) | 25.3 µM (inactive) | 25.4 µM (inactive) | 47.2 µM (inactive) |  | 98.6 µM (inactive)
COc1ccc(C2CCC(Cl)(OC)CC2C=O)cc1 (stereo not drawn) | 34.6 µM (inactive) | > 100 µM (inactive) | > 100 µM (inactive) | > 100 µM (inactive) | 21.9 µM (inactive) | 73.6 µM (inactive) | > 100 µM (inactive) | 94.2 µM (inactive) | 69.5 µM (inactive) | > 100 µM (inactive) | 58.7 µM (inactive) | 40.1 µM (inactive) | 56.4 µM (inactive) | 64.7 µM (inactive) | > 100 µM (inactive) | 41.1 µM (inactive) | 80.4 µM (inactive) | 46.1 µM (inactive) |  | 58.7 µM (inactive)
CC1C2CC(C(S(=O)(=O)O)C2=O)C1(C)C (stereo not drawn) | > 100 µM (inactive) | > 100 µM (inactive) | > 100 µM (inactive) | > 100 µM (inactive) | > 100 µM (inactive) | > 100 µM (inactive) | > 100 µM (inactive) | > 100 µM (inactive) | > 100 µM (inactive) | > 100 µM (inactive) | > 100 µM (inactive) | > 100 µM (inactive) | > 100 µM (inactive) | > 100 µM (inactive) | > 100 µM (inactive) | > 100 µM (inactive) | > 100 µM (inactive) | > 100 µM (inactive) |  | 
O=C(NC(CO)CO)c1ccc2cc(C(=O)N3CC(CCl)c4ccc([N+](=O)[O-])cc43)[nH]c2c1 (stereo not drawn) | > 100 µM (inactive) | > 100 µM (inactive) | > 100 µM (inactive) | > 100 µM (inactive) | > 100 µM (inactive) | > 100 µM (inactive) | > 100 µM (inactive) | > 100 µM (inactive) | > 100 µM (inactive) | > 100 µM (inactive) | > 100 µM (inactive) | > 100 µM (inactive) | > 100 µM (inactive) |  | > 100 µM (inactive) |  | > 100 µM (inactive) | > 100 µM (inactive) | > 100 µM (inactive) | > 100 µM (inactive)
COC(=O)C(CCC1(C)OCCO1)C(C)=O (stereo not drawn) | > 100 µM (inactive) | > 100 µM (inactive) | > 100 µM (inactive) | > 100 µM (inactive) | > 100 µM (inactive) | > 100 µM (inactive) | > 100 µM (inactive) | > 100 µM (inactive) | > 100 µM (inactive) | > 100 µM (inactive) |  | > 100 µM (inactive) | > 100 µM (inactive) | > 100 µM (inactive) | > 100 µM (inactive) | 84.3 µM (inactive) | > 100 µM (inactive) | > 100 µM (inactive) |  | > 100 µM (inactive)
O=C1C=CC(=CC=C2C=CN(CCCCCCCCCCC(=O)NCCCCCCCCCCCC(=O)O)C=C2)C=C1 | > 100 µM (inactive) | > 100 µM (inactive) | > 100 µM (inactive) | > 100 µM (inactive) | > 100 µM (inactive) | > 100 µM (inactive) | > 100 µM (inactive) | > 100 µM (inactive) | > 100 µM (inactive) | > 100 µM (inactive) | > 100 µM (inactive) | > 100 µM (inactive) | > 100 µM (inactive) | > 100 µM (inactive) | > 100 µM (inactive) | > 100 µM (inactive) | > 100 µM (inactive) | > 100 µM (inactive) |  | > 100 µM (inactive)
Oc1cc(-c2ccccc2)nc2cc3c(cc12)OCO3 | 8.55 µM (inactive) | 15.6 µM (inactive) | 12.8 µM (inactive) | 15.6 µM (inactive) | 3.83 µM (inactive) | 20 µM (inactive) | 1.54 µM (inactive) | 10 µM (inactive) | 4.11 µM (inactive) | 44.5 µM (inactive) | 5.52 µM (inactive) | 7.36 µM (inactive) | 6.05 µM (inactive) | 3.93 µM (inactive) | 39 µM (inactive) | 3.36 µM (inactive) | 13.1 µM (inactive) | 8.57 µM (inactive) |  | 3.52 µM (inactive)
